What was measured:
[1] = target: T1, LPA2 (Homo sapiens, UniProt Q9HBW0); assay: Ca2+ mobilization assay, antagonist activity at LPA2; assay type: cell-based
T1 construct: expressed in transfected cells
Protocol: (§1) Cells stably expressing the corresponding LPA1–3 receptor were grown as described previously.[18] Changes in intracellular calcium levels were measured by using the fluorescent calcium sensitive dye Fluo-4 NW (Invitrogen). RH7777 cells or B103 cells were plated on poly-D-lysine or collagen coated, respectively, black-wall clear-bottom 96-well plates (Corning) at a density of 50 000 cells/well and cultured overnight. The culture medium was then replaced with 100 μL of Fluo-4 NW dye loading solution containing 2.5 μM of probenecid and incubated for 30 min at 37 °C followed by an additional 30 min at rt. […] Fluorescence changes were registered in a FluoStar Optima instrument (BMG Labtech) at 525 nm using an excitation wavelength of 494 nm. […] The data presented are from two to four independent experiments carried out in triplicate or quadruplicate. Dose–response curves were generated and IC50 values calculated by nonlinear regression analysis using Prism software version 5 (GraphPad Software Inc., San Diego, CA, USA).
Figure S2. Dose response curves for compounds 13, 44, 53, 54, and 55. B103 cells stably expressing LPA2 receptor were incubated with different concentrations of the compound under study and […]
Curves were generated with PRISM software version 5 (GraphPad Software Inc, San Diego, CA, USA) using nonlinear regression analysis. Each data point corresponds to the mean±SEM of two to four independent experiments carried out in triplicate or quadruplicate.

[2] = target: T2, LPA3 (Homo sapiens, UniProt Q9UBY5); assay: cell-based; conditions: for Emax (%) LPA3: maximum blockade of activation induced by 10 μM LPA (18:1) at 10 μM compound, N.E. = no effect at 10 μM
T2 sequence (Q9UBY5 1-353): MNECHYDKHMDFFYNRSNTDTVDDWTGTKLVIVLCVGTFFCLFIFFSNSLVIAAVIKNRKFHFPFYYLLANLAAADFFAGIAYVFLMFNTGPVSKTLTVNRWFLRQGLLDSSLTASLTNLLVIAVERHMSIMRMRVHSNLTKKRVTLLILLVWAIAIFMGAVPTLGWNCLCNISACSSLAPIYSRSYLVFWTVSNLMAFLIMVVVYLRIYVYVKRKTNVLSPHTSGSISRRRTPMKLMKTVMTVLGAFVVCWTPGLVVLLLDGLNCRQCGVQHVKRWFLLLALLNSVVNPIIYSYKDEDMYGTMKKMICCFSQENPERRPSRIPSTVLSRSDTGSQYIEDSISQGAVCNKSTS
Protocol: as §1

[3] = target: LPA1 (Homo sapiens, UniProt Q92633); assay: cell-based; conditions: maximum blockade of activation induced by 10 μM LPA (18:1) at 10 μM compound; N.E. = no effect at 10 μM
Chain of LPA1 (Q92633 whole entry, species assumed): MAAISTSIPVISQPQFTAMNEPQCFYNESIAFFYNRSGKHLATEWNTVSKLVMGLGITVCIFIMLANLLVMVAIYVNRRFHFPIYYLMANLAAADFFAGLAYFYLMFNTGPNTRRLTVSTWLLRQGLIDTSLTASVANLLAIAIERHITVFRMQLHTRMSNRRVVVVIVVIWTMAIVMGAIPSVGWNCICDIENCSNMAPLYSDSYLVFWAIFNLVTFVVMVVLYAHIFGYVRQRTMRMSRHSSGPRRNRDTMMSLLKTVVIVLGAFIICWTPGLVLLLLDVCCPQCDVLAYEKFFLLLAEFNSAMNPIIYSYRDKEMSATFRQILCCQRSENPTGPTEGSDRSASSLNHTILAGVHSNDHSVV
Protocol: as §1

T1 sequence (Q9HBW0 whole entry, species assumed): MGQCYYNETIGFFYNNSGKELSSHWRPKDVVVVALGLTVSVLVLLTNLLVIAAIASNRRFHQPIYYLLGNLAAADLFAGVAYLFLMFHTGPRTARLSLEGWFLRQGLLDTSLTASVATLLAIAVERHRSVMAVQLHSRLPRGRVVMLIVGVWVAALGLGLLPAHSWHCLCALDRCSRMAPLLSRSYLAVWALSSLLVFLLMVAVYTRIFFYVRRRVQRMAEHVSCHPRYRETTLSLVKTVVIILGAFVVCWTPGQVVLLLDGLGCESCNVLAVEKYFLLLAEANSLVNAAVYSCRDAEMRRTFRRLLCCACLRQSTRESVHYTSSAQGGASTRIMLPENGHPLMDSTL

| Compound | melting point | Emax at 10 µM [1] [%] | Emax (%) LPA3 [2] | Emax (%) LPA1 [3] | Emax (%) LPA2 ([1]; maximum blockade of activation induced by 10 μM LPA (18:1) at 10 μM compound) [%] | Emax ([2]; read-out: Emax (%) LPA3) [%] |
| --- | --- | --- | --- | --- | --- | --- |
| Cc1[nH]nc(-c2ccc(OCC(=O)O)cc2)c1Oc1ccc(Cl)cc1Cl [Compound 30, 4-(2,4-Dichlorophenoxy)-3-(4-carboxymethoxyphenyl)-5-methyl-1H-pyrazole] | 158 to 160 °C | 11 | – | – | – | – |
| Cc1[nH]nc(-c2ccc(O)cc2O)c1Oc1ccc(Cl)cc1Cl [Compound 42, 4-[4-(2,4-Dichlorophenoxy)-5-methyl-1H-pyrazol-3-yl]benzene-1,3-diol] | 206 to 208 °C | 16 ± 7 | N.E. | N.E. | – | – |
| Cc1[nH]nc(-c2ccc(OCC(N)=O)cc2O)c1Oc1ccc(Cl)cc1Cl [Compound 45, 2-{4-[4-(2,4-Dichlorophenoxy)-5-methyl-1H-pyrazol-3-yl]-3-hydroxyphenoxy}acetamide] | – | 44 ± 7 | N.E. | N.E. | – | – |
| Cc1[nH]nc(-c2ccc(OCCCCC(=O)O)cc2O)c1Oc1ccc(Cl)cc1Cl [Compound 38, 5-{4-[4-(2,4-Dichlorophenoxy)-5-methyl-1H-pyrazol-3-yl]-3-hydroxyphenoxy}pentanoic Acid] | – | 21 ± 8 | N.E. | N.E. | – | – |
| O=C(O)COc1ccc(-c2n[nH]cc2Oc2ccc(Cl)cc2Cl)c(O)c1 [Compound 48, {4-[4-(2,4-Dichlorophenoxy)-1H-pyrazol-3-yl]-3-hydroxyphenoxy}acetic Acid] | – | 35 ± 8 | N.E. | N.E. | – | – |
| COc1ccc(-c2n[nH]c(C)c2Oc2ccc(Cl)cc2Cl)c(O)c1 [Compound 43, 2-[4-(2,4-Dichlorophenoxy)-5-methyl-1H-pyrazol-3-yl]-5-methoxyphenol] | 220 to 222 °C | 9 ± 5 | N.E. | N.E. | – | – |
| Cc1[nH]nc(-c2ccc(OCC(=O)O)cc2O)c1Oc1cccc(Cl)c1 [Compound 10, {4-[4-(3-Chlorophenoxy)-5-methyl-1H-pyrazol-3-yl]-3-hydroxyphenoxy}acetic Acid] | > 240 °C (dec.) | 45 ± 8 | N.E. | N.E. | – | – |
| Cc1[nH]nc(-c2ccc(OCC(=O)O)cc2O)c1Oc1ccccc1 [Compound 3, [3-Hydroxy-4-(5-methyl-4-phenoxy-1H-pyrazol-3-yl)phenoxy]acetic Acid] | > 180 °C (dec.) | 20 ± 7 | N.E. | N.E. | – | – |
| {4-[4-(2,4-Dichlorophenoxy)-3-methyl-1,2-oxazol-3-yl]-3-hydroxyphenoxy}acetic Acid [Compound 49] | – | – | 71 ± 4% | N.E. | 58 ± 3 | – |
| Cc1[nH]nc(-c2ccc(OCCC(=O)O)cc2O)c1Oc1ccc(Cl)cc1Cl [Compound 36, 3-{4-[4-(2,4-Dichlorophenoxy)-5-methyl-1H-pyrazol-3-yl]-3-hydroxyphenoxy}propanoic Acid] | – | 67 ± 7 | N.E. | N.E. | – | – |
| Cc1[nH]nc(-c2ccc(OCCCC(=O)O)cc2O)c1Oc1ccc(Cl)cc1Cl [Compound 37, 4-{4-[4-(2,4-Dichlorophenoxy)-5-methyl-1H-pyrazol-3-yl]-3-hydroxyphenoxy}butanoic Acid] | – | 43 ± 12 | N.E. | N.E. | – | – |
| O=C(O)COc1ccc(-c2cc[nH]n2)c(O)c1 [Compound 2, [3-Hydroxy-4-(1H-pyrazol-3-yl)phenoxy]acetic Acid] | 92 to 94 °C | 7 ± 3 | – | – | – | – |
| Cc1c(Oc2ccc(Cl)cc2Cl)c(-c2ccc(OCC(=O)O)cc2O)nn1C [Compound 47, {4-[4-(2,4-Dichlorophenoxy)-1,5-dimethyl-1H-pyrazol-3-yl]-3-hydroxyphenoxy}acetic Acid] | – | 73 ± 10 | – | N.E. | – | 47 ± 7 |
